{"source": "patent US12685761B2", "about": "“VIP and VIP agonists, nanoparticles, and uses in inflammatory T-cell mediated disease” (Emory University, priority 2018, dated 2026)", "tested_on": "VIP-KO B6 recipients", "assay": "Short-term VIP administration in allo-BMT GvHD lethality model (FIG. 4)", "format": "in vivo, mice", "conditions": "VIP 10 μgram/day vs PBS from day 0 to day 10; lethally irradiated VIP-KO B6 recipients infused with 5M TCD BM plus 3×10^6 B10.BR T cells", "source_text": "Lethally irradiated WT and VIP-KO B6 recipients were infused with 5M TCD BM plus 3×10^6 B10.BR T cells."}
{"substance": "vasoactive intestinal peptide [VIP]", "values": [{"measurement": "acute GvHD mortality after allo-BMT", "value": "rescued VIP-KO recipients from acute GvHD mortality"}]}
